This note sets out measurements from patent EP3628672A1 (priority 2018, dated 2020).

The target of this experiment is T1, purified LasB protein from P. aeruginosa (Pseudomonas aeruginosa, UniProt P14756).
T1 construct: purchased Merck or Charles River Laboratories
T1 sequence (P14756 198-498): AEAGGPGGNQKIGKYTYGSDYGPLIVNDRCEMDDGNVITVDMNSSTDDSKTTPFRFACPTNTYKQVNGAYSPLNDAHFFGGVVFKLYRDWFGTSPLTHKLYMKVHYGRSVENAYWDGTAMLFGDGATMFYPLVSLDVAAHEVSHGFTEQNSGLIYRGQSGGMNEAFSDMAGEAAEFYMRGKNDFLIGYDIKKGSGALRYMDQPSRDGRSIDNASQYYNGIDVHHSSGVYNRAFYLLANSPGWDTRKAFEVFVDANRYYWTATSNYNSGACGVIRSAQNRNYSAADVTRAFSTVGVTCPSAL
In words: Fluorometric assay to determine Ki (Abz-Ala-Gly-Leu-Ala-p-Nitro-Benzyl-Amide substrate). In kind it is biochemical. The procedure: Experiments were therefore conducted (1) to measure the potency of inhibition of compounds of the invention against purified Pseudomonas aeruginosa LasB enzyme and also experiments were conducted (2) to measure the ability of compounds of the invention to inhibit LasB-catalysed elastin degradation. The first assay uses a commercial fluorescent synthetic peptide and purified LasB enzyme. The LasB hydrolysis kinetics are measured allowing the determination of the IC50 and Ki of the inhibitors; the second is a more physiological assay using dialysed Pseudomonas aeruginosa supernatant as source of enzyme, plus its natural substrate Elastin. It is an "end point assay" that determines the percentage of LasB inhibition by each compound for one particular time point and inhibitor concentration. Technical details are described below:
This assay uses commercially available substrate (Abz-Ala-Gly-Leu-Ala-p-Nitro-Benzyl-Amide (Ex: 340 nm, Em: 415 nm) from Peptide International) and purified LasB protein from P. aeruginosa (provided by Merck or Charles River Laboratories). It is performed to determine LasB elastase activity and assess compound inhibition in 96-well plate format. All compounds of Formula (I) were assessed using the method described below.
Method: 10 to 140 ng/ml purified LasB is incubated with 250 µM Abz-Ala-Gly-Leu-Ala-p-Nitro-Benzyl-Amide in 50 mM Tris-HCl pH 7.4, 2.5 mM CaCl2, 0.01% of Triton X100 at 37°C. LasB activity (corresponding to fluorescence emission induced by substrate hydrolysis) is measured over 30 min at 37°C with a fluorescence plate reader such as the Perkin Elmer Envision or similar. Different range of inhibitor concentrations are routinely assessed depending of inhibitor potency from 0.0016 to 200 µM (2-fold dilutions series) in order to determine IC50.
The equation used to calculate the Ki from IC50 is: Ki = IC50 / (1+([S]/Km)) where [S] = 250 µM and Km = 214 µM.
As for `O=C(O)CC1(C(=O)NCc2nc3ccccc3s2)Cc2cc(Cl)c(Cl)cc2C1` [Example 4, 2-(2-((benzo[d]thiazol-2-ylmethyl)carbamoyl)-5,6-dichloro-2,3-dihydro-1H-inden-2-yl)acetic acid], the Ki fell in the range of 200 to 10000 nM.
The same measure for `CN(C)C1CCN(C(=O)c2ccc(-c3csc(CNC(=O)C4(CC(=O)O)Cc5ccccc5C4)n3)cc2)CC1` [Example 17, 2-[2-[[4-[4-[4-(dimethylamino)piperidine-1-carbonyl]phenyl]thiazol-2-yl]methylcarbamoyl]indan-2-yl] acetic acid]: 200 to 10000 nM.
Compound `CN(C)[C@H]1CCN(C(=O)c2ccc(-c3csc(CNC(=O)C4(CC(=O)O)Cc5ccccc5C4)n3)cc2)C1` [Example 18, 2-[2-[[4-[4-[(3S)-3-(dimethylamino)pyrrolidine-1-carbonyl]phenyl]thiazol-2-yl]methylcarbamoyl]indan-2-yl]acetic acid] registered a Ki of 200 to 10000 nM.
The same measure for `CN(C)CCCNC(=O)c1ccccc1-c1csc(CNC(=O)C2(CC(=O)O)Cc3ccccc3C2)n1` [Example 21, 2-[2-[[4-[2-[3-(dimethylamino)propylcarbamoyl]phenyl]thiazol-2-yl]methylcarbamoyl]indan-2-yl]acetic acid]: 200 to 10000 nM; for `C[N+]1(C)CCN(C(=O)c2ccc(-c3csc(CNC(=O)C4(CC(=O)[O-])Cc5ccccc5C4)n3)cc2)CC1` [Example 22, 2-[2-[[4-[4-(4,4-dimethylpiperazin-4-ium-1-carbonyl)phenyl]thiazol-2-yl]methylcarbamoyl]indan-2-yl]acetate]: 200 to 10000 nM.
On to `COc1ccc(C(=O)NCCN(C)C)cc1-c1csc(CNC(=O)C2(CC(=O)O)Cc3ccccc3C2)n1` [Example 24, 2-[2-[[4-[5-[2-(dimethylamino)ethylcarbamoyl]-2-methoxy-phenyl]thiazol-2-yl]methylcarbamoyl]indan-2-yl]acetic acid], for which the Ki was in the range of 200 to 10000 nM.
`COc1ccc(C(=O)N2CCN(C)CC2)cc1-c1csc(CNC(=O)C2(CC(=O)O)Cc3ccccc3C2)n1` [Example 25, 2-[2-[[4-[2-methoxy-5-(4-methylpiperazine-1-carbonyl)phenyl)thiazol-2-yl]methylcarbamoyl]indan-2-yl]acetic acid] showed a Ki of 200 to 10000 nM.
In the case of `CN(C)C1CN(c2cccc(-c3csc(CNC(=O)C4(CC(=O)O)Cc5ccccc5C4)n3)c2)C1` [Example 29, 2-[2-[[4-[3-[3-(dimethylamino)azetidin-1-yl]phenyl]thiazol-2-yl]methylcarbamoyl]indan-2-yl]acetic acid] it was 200 to 10000 nM; in that of `C[N+](C)(C)CC(=O)Nc1ccc(-c2csc(CNC(=O)C3(CC(=O)[O-])Cc4ccccc4C3)n2)cc1` [Example 40, 2-[2-[[4-[4-[[2-(trimethylammonio)acetyl]amino]phenyl]thiazol-2-yl]methylcarbamoyl]indan-2-yl] acetate], 200 to 10000 nM; in that of `CN(C)CC(=O)Nc1cccc(-c2csc(CNC(=O)C3(CC(=O)O)Cc4ccccc4C3)n2)c1` [Example 41, 2-[2-[[4-[3-[[2-(dimethylamino)acetyl]amino]phenyl]thiazol-2-yl]methylcarbamoyl]indan-2-yl]acetic acid], 200 to 10000 nM.
In the case of `C[N+](C)(C)CC(=O)Nc1cccc(-c2csc(CNC(=O)C3(CC(=O)[O-])Cc4ccccc4C3)n2)c1` [Example 42, 2-[2-[[4-[3-[[2-(trimethylammonio)acetyl]amino]phenyl]thiazol-2-yl]methylcarbamoyl]indan-2-yl] acetate] it was 200 to 10000 nM.
With `CN(C)CCOc1ccc(-c2csc(CNC(=O)C3(CC(=O)O)Cc4ccccc4C3)n2)cc1` [Example 48, 2-[2-[[4-[4-[2-(dimethylamino)ethoxy]phenyl]thiazol-2-yl]methylcarbamoyl]indan-2-yl]acetic acid], the Ki was 200 to 10000 nM.
The same measure for `NC1CCN(C(=O)COc2ccc(-c3csc(CNC(=O)C4(CC(=O)O)Cc5ccccc5C4)n3)cc2)CC1` [Example 52, 2-[2-[[4-[4-[2-(4-amino-1-piperidyl)-2-oxo-ethoxy]phenyl]thiazol-2-yl]methylcarbamoyl]indan-2-yl]acetic acid]: 50 to 200 nM.
